Laboratory results reported in patent publication US11440939B2, “Anticancer peptides” (IDP DISCOVERY PHARMA, S.L., priority 2017, dated 2022).
Numbered stars: 1 amine (or outer) side, 2 acyl side, 3 side chain; on linkers, the order of the positions; unused ones are H or OH. Bridge positions count the residues as written; N and C are the ends. Square brackets hold non-standard residues; d marks the D form. Peptide text beside a SMILES is read from it. ξ: configuration not given here. ξαMeNle(6-ylidene) = CC(CCCC=[*:3])(N[*:1])C(=O)[*:2]; X1 = CC(CCCCCCC=[*:3])(N[*:1])C(=O)[*:2]

Experiments:
NCI-H69 = assay type: cell-based; conditions: 72 h
Description: NCI-69, (small cell lung cancer, SCLC), ATCC-HTB-119;
(§1) Cell line MCF-7 was cultured in incubator under CO2 (6%) at 37° C. in DMEM high glucose (Dulbecco's Modified Eagle Solution, Gibco-BRL 31966-21) medium with 10% fetal bovine serum inactivated (FBS) (Gibco-BRL 10106-169). Cell lines HL-60, NCI-H524, NCI-H526, NCI-H69, NCI-H82, NCI-H187 and H5B were cultured in an incubator at 37° C. in RPMI-1640 (Sigma R8758) medium with 10% of fetal bovine serum inactivated (FBS) and 2 mM glutamine (Sigma G7513). Cell line NCI-H510A was cultured in incubator in F12K medium with 10% of fetal bovine serum inactivated (FBS). […]
(§2) During the amplification step and the assays, adherent cells were rinsed with DPBS (Dulbecco's Phosphate Buffered Saline, Sigma D1283) three times and afterward treated for 5 minutes with trypsin ([…]) (Gibco-BRL, 15400054) in solution of DPBS at 37° C., and, once detached, transferred in the culturing medium. […] Cells were counted in a Neubauer chamber after labelling with Tripan-Blue. […]
(§3) Cells were incubated during 72 h in incubator under CO2 atmosphere at 37° C. Cell viability was measured by means of MTT (3-(4,5-dimethylthiazol-2-yl)-2,5-diphenyltetrazolium bromide) assay, Alamar Blue® (Biosource DAL1100) and Hexosaminidase activity test, consecutively, following manufacturer instructions.
(§4) MTT: 1. […] Absorbance at 570 nm was finally measured. […]

[1] = Stability test in human plasma, LC MS/MS; assay type: in vitro ADME; conditions: 37° C.
Description: For the preparation of stock solutions, H14 was dissolved in water/acetonitrile (95/5, v/v) containing 0.1% formic acid to a concentration of 1.00 mg/mL. Further serial dilutions were carried out in plasma. The concentrations were calculated under consideration of purity.
For preparation of plasma samples, the human blank plasma were fortified with the stock solution using a ratio of 1:100 to obtain a sample with 10.0 μg/mL which was subsequently serial-diluted in human blank plasma.
A volume of 300 μL of human plasma samples for the two peptide concentrations (100 ng/mL and 1000 ng/mL) were transferred to an empty 96 deep well plate. The plate was incubated at 37° C. in a thermomixer at approximately 700 rpm. At selected incubation time points of 0 h, 1 h, 2 h, 4 h, 6 h and 24 h, aliquots of plasma were precipitated with acetonitrile containing internal standard. To an aliquot of 20 μL human plasma samples, 40 μL of acetonitrile containing 1% formic acid and the internal standard was added. After vortex mixing for a few seconds, the samples were centrifuged for about 10 minutes at approximately 50000 g. The temperature of the centrifuge was set to 8° C. An aliquot of 30 μL of the supernatant was transferred to an autosampler vial for analysis using LC MS/MS.
The quantification of H14 was performed by column separation with reverse phase chromatography followed by detection with triple stage quadrupole MS/MS in the selected reaction monitoring mode.

NCI-H82 = assay type: cell-based; conditions: 72 h
GBM-27 = assay type: cell-based
Description: GMB-27, epithelial (glioblastoma, GMB), from surgical specimens from patients;
as §1
During the amplification step and the assays, adherent cells were rinsed with DPBS (Dulbecco's Phosphate Buffered Saline, Sigma D1283) three times and afterward treated for 5 minutes with trypsin ([…]) (Gibco-BRL, 15400054) in solution of DPBS at 37° C., and, once detached, transferred in the culturing medium. […] Cells were counted in a Neubauer chamber after labelling with Tripan-Blue.
as §3, with “instructions. […]” for “instructions.”

NCI-H187 = assay type: cell-based; conditions: 72 h
HL-60 = assay type: cell-based
Description: HL-60, promyeloblast (acute myelocytic leukemia, AML), ECACC: 98070106;
as §1, §2, §3, §4

NCI-H510A = assay type: cell-based; conditions: 72 h

CC(C)C[C@H](NC(=O)[C@H](CCCCN)NC(=O)[C@@H](NC(=O)[C@@H](N)CCCNC(=N)N)C(C)C)C(=O)N[C@H](C(=O)N[C@@H](CC(N)=O)C(=O)N[C@@H](CC(C)C)C(=O)NC1(C)CCCCCCC=CCCCC(C)(C(=O)N[C@H](C(=O)N2CCC[C@H]2C(N)=O)C(C)C)NC(=O)[C@H](CCC(=O)O)NC(=O)[C@H](CCCNC(=N)N)NC(=O)[C@H](CC(C)C)NC(=O)[C@H]([C@@H](C)O)NC(=O)[C@H](C)NC(=O)[C@H](Cc2ccccc2)NC1=O)C(C)C (stereo partly drawn) [H14] (H-RVKLVNL[X1]FATLRE[ξαMeNle(6-ylidene)]VP-NH2; staple 8-15; N-terminus and C-terminus assumed)
EC50 (NCI-H69): ~7 µM
H14 amount (% peak area) ([1]; 100 ng/mL, 0 h): 100 % peak area
remaining at 1 h, 100 ng/mL ([1]; 100 ng/mL, 1 h, read-out: H14 amount (% peak area)): 96.1%
H14 amount (% peak area) ([1]; 100 ng/mL, 2 h): 96.1 % peak area
remaining at 4 h, 100 ng/mL ([1]; 100 ng/mL, 4 h, read-out: H14 amount (% peak area)): 102%
remaining at 6 h, 100 ng/mL ([1]; 100 ng/mL, 6 h, read-out: H14 amount (% peak area)): 97.2%
remaining at 24 h, 100 ng/mL ([1]; 100 ng/mL, 24 h, read-out: H14 amount (% peak area)): 108%
H14 amount (% peak area) ([1]; 1000 ng/mL, 0 h): 100 % peak area
remaining at 1 h, 1000 ng/mL ([1]; 1000 ng/mL, 1 h, read-out: H14 amount (% peak area)): 101%
remaining at 2 h, 1000 ng/mL ([1]; 1000 ng/mL, 2 h, read-out: H14 amount (% peak area)): 94.9%
remaining at 4 h, 1000 ng/mL ([1]; 1000 ng/mL, 4 h, read-out: H14 amount (% peak area)): 95.4%
remaining at 6 h, 1000 ng/mL ([1]; 1000 ng/mL, 6 h, read-out: H14 amount (% peak area)): 99.9%
remaining at 24 h, 1000 ng/mL ([1]; 1000 ng/mL, 24 h, read-out: H14 amount (% peak area)): 101%
EC50 (NCI-H82): ~12.5 µM
EC50 (GBM-27): ~5 µM
EC50 (NCI-H187): ~10 µM
EC50 (HL-60): ~14 µM
EC50 (NCI-H510A): ~12 µM
